Measured values from ChEMBL document CHEMBL4627352, “New acrylamide-sulfisoxazole conjugates as dihydropteroate synthase inhibitors” (Bioorg Med Chem, 2020).
In brackets after ≈: the same amount, converted by molar mass. Activity calls are given as the source filed them. The rule behind the calls is not given here.

Tests used:
Streptococcus pneumoniae [1] = experiment: Inhibition of DHPS in Streptococcus pneumoniae assessed as antibacterial activity by measuring inhibition zone at 5 mg/mL incubated for 24 hrs by disk diffusion method
Bacillus subtilis [2] = experiment: Inhibition of DHPS in Bacillus subtilis assessed as antibacterial activity by measuring inhibition zone at 5 mg/mL incubated for 24 hrs by disk diffusion method
[3] = system: Staphylococcus epidermidis; experiment: Inhibition of DHPS in Staphylococcus epidermidis assessed as antibacterial activity by measuring inhibition zone at 5 mg/mL incubated for 24 hrs by disk diffusion method
Escherichia coli [4] = experiment: Inhibition of DHPS in Escherichia coli assessed as antibacterial activity by measuring inhibition zone at 5 mg/mL incubated for 24 hrs by disk diffusion method
Proteus vulgaris [5] = experiment: Inhibition of DHPS in Proteus vulgaris assessed as antibacterial activity by measuring inhibition zone at 5 mg/mL incubated for 24 hrs by disk diffusion method
Klebsiella pneumoniae [6] = experiment: Inhibition of DHPS in Klebsiella pneumoniae assessed as antibacterial activity by measuring inhibition zone at 5 mg/mL incubated for 24 hrs by disk diffusion method
Streptococcus pneumoniae [7] = experiment: Inhibition of DHPS in Streptococcus pneumoniae assessed as antibacterial activity by measuring inhibition of bacterial growth incubated for 24 hrs by microbroth dilution method
Bacillus subtilis [8] = experiment: Inhibition of DHPS in Bacillus subtilis assessed as antibacterial activity by measuring inhibition of bacterial growth incubated for 24 hrs by microbroth dilution method
[9] = system: Staphylococcus epidermidis; experiment: Inhibition of DHPS in Staphylococcus epidermidis assessed as antibacterial activity by measuring inhibition of bacterial growth incubated for 24 hrs by microbroth dilution method
Escherichia coli [10] = experiment: Inhibition of DHPS in Escherichia coli assessed as antibacterial activity by measuring inhibition of bacterial growth incubated for 24 hrs by microbroth dilution method
Proteus vulgaris [11] = experiment: Inhibition of DHPS in Proteus vulgaris assessed as antibacterial activity by measuring inhibition of bacterial growth incubated for 24 hrs by microbroth dilution method
Klebsiella pneumoniae [12] = experiment: Inhibition of DHPS in Klebsiella pneumoniae assessed as antibacterial activity by measuring inhibition of bacterial growth incubated for 24 hrs by microbroth dilution method
Aspergillus fumigatus [13] = experiment: Inhibition of DHPS in Aspergillus fumigatus assessed as antifungal activity by measuring inhibition zone at 5 mg/mL incubated for 48 hrs by disk diffusion method
[14] = system: Syncephalastrum racemosum; experiment: Inhibition of DHPS in Syncephalastrum racemosum assessed as antifungal activity by measuring inhibition zone at 5 mg/mL incubated for 48 hrs by disk diffusion method
Geotrichum candidum [15] = experiment: Inhibition of DHPS in Geotrichum candidum assessed as antifungal activity by measuring inhibition zone at 5 mg/mL incubated for 48 hrs by disk diffusion method
Aspergillus fumigatus [16] = experiment: Inhibition of DHPS in Aspergillus fumigatus assessed as antifungal activity by measuring inhibition of fungal growth incubated for 48 hrs by microbroth dilution method
[17] = system: Syncephalastrum racemosum; experiment: Inhibition of DHPS in Syncephalastrum racemosum assessed as antifungal activity by measuring inhibition of fungal growth incubated for 48 hrs by microbroth dilution method
Geotrichum candidum [18] = experiment: Inhibition of DHPS in Geotrichum candidum assessed as antifungal activity by measuring inhibition of fungal growth incubated for 48 hrs by microbroth dilution method
[19] = system: Escherichia coli ATCC 25922; experiment: Inhibition of DHPS in Escherichia coli ATCC 25922 assessed as inhibition of bacterial growth incubated for 24 hrs in presence of folate precursor, pABA by microbroth dilution method
[20] = system: Escherichia coli ATCC 25922; experiment: Inhibition of DHPS in Escherichia coli ATCC 25922 assessed as inhibition of bacterial growth incubated for 24 hrs in presence of folate dependent metabolite, methionine by microbroth dilution method
Aspergillus fumigatus [21] = experiment: Potency index, ratio of sulfisoxazole MIC to compound MIC for Aspergillus fumigatus assessed as inhibition of DHPS-mediated fungal growth incubated for 48 hrs by microbroth dilution method
[22] = system: Staphylococcus epidermidis; experiment: Potency index, ratio of sulfisoxazole MIC to compound MIC for Staphylococcus epidermidis assessed as inhibition of DHPS-mediated bacterial growth incubated for 24 hrs by microbroth dilution method
Klebsiella pneumoniae [23] = experiment: Potency index, ratio of sulfisoxazole MIC to compound MIC for Klebsiella pneumoniae assessed as inhibition of DHPS-mediated bacterial growth incubated for 24 hrs by microbroth dilution method
Geotrichum candidum [24] = experiment: Potency index, ratio of sulfisoxazole MIC to compound MIC for Geotrichum candidum assessed as inhibition of DHPS-mediated fungal growth incubated for 48 hrs by microbroth dilution method
[25] = system: Syncephalastrum racemosum; experiment: Potency index, ratio of amphotericin B MIC to compound MIC for Syncephalastrum racemosum assessed as inhibition of DHPS-mediated fungal growth incubated for 48 hrs by microbroth dilution method
Bacillus subtilis [26] = experiment: Potency index, ratio of ampicillin MIC to compound MIC for Bacillus subtilis assessed as inhibition of DHPS-mediated bacterial growth incubated for 24 hrs by microbroth dilution method
Escherichia coli [27] = experiment: Potency index, ratio of gentamycin MIC to compound MIC for Escherichia coli assessed as inhibition of DHPS-mediated bacterial growth incubated for 24 hrs by microbroth dilution method
hTERT-BJ = experiment: Cytotoxicity against human hTERT-BJ1 cells at 50 uM by acid phosphatase assay relative to control; format: cell-based
Escherichia coli [28] = experiment: Potency index, ratio of sulfisoxazole MIC to compound MIC for Escherichia coli assessed as inhibition of DHPS-mediated bacterial growth incubated for 24 hrs by microbroth dilution method
[29] = system: Syncephalastrum racemosum; experiment: Potency index, ratio of sulfisoxazole MIC to compound MIC for Syncephalastrum racemosum assessed as inhibition of DHPS-mediated fungal growth incubated for 48 hrs by microbroth dilution method

## CN/C(S)=C(/C#N)C(=O)Nc1ccc(S(=O)(=O)Nc2onc(C)c2C)cc1
Streptococcus pneumoniae [1]
  inhibition zone (IZ): 20.3 mm
Bacillus subtilis [2]
  inhibition zone (IZ): 22.4 mm
[3]
  inhibition zone (IZ): 20.8 mm
Escherichia coli [4]
  inhibition zone (IZ): 20.6 mm
Proteus vulgaris [5]
  inhibition zone (IZ): 18.3 mm
Klebsiella pneumoniae [6]
  inhibition zone (IZ): 22.6 mm
Streptococcus pneumoniae [7]
  MIC: 3.9 µg/mL (≈ 9.57 µM)
Bacillus subtilis [8]
  MIC: 0.98 µg/mL (≈ 2.41 µM)
[9]
  MIC: 1.95 µg/mL (≈ 4.79 µM)
Escherichia coli [10]
  MIC: 1.95 µg/mL (≈ 4.79 µM)
Proteus vulgaris [11]
  MIC: 7.81 µg/mL (≈ 19.2 µM)
Klebsiella pneumoniae [12]
  MIC: 0.98 µg/mL (≈ 2.41 µM)
Aspergillus fumigatus [13]
  inhibition zone (IZ): 18.6 mm
[14]
  inhibition zone (IZ): 17.2 mm
Geotrichum candidum [15]
  inhibition zone (IZ): 18.9 mm
Aspergillus fumigatus [16]
  MIC: 3.9 µg/mL (≈ 9.57 µM)
[17]
  MIC: 15.6 µg/mL (≈ 38.4 µM)
Geotrichum candidum [18]
  MIC: 3.9 µg/mL (≈ 9.57 µM)
[19]
  inhibition: inactive
[20]
  inhibition: inactive
Aspergillus fumigatus [21]
  Ratio: 4
[22]
  Ratio: 4
Klebsiella pneumoniae [23]
  Ratio: 3
Geotrichum candidum [24]
  Ratio: 2

## C=CCN/C(SCC)=C(/C#N)C(=O)Nc1ccc(S(=O)(=O)Nc2onc(C)c2C)cc1
Streptococcus pneumoniae [1]
  inhibition zone (IZ): 24.9 mm
Bacillus subtilis [2]
  inhibition zone (IZ): 26.8 mm
[3]
  inhibition zone (IZ): 24.2 mm
Escherichia coli [4]
  inhibition zone (IZ): 21.8 mm
Proteus vulgaris [5]
  inhibition zone (IZ): 20.7 mm
Klebsiella pneumoniae [6]
  inhibition zone (IZ): 24.7 mm
Streptococcus pneumoniae [7]
  MIC: 0.12 µg/mL (≈ 0.26 µM)
Bacillus subtilis [8]
  MIC: 0.12 µg/mL (≈ 0.26 µM)
[9]
  MIC: 0.25 µg/mL (≈ 0.542 µM)
Escherichia coli [10]
  MIC: 0.98 µg/mL (≈ 2.12 µM)
Proteus vulgaris [11]
  MIC: 3.9 µg/mL (≈ 8.45 µM)
Klebsiella pneumoniae [12]
  MIC: 0.25 µg/mL (≈ 0.542 µM)
Aspergillus fumigatus [13]
  inhibition zone (IZ): 22.9 mm
[14]
  inhibition zone (IZ): 22.4 mm
Geotrichum candidum [15]
  inhibition zone (IZ): 22.1 mm
Aspergillus fumigatus [16]
  MIC: 0.49 µg/mL (≈ 1.06 µM)
[17]
  MIC: 0.98 µg/mL (≈ 2.12 µM)
Geotrichum candidum [18]
  MIC: 1.95 µg/mL (≈ 4.22 µM)
[19]
  inhibition: inactive
[20]
  inhibition: inactive
[25]
  Ratio: 3
Bacillus subtilis [26]
  Ratio: 2
Escherichia coli [27]
  Ratio: 2

## CCS/C(NC)=C(\C#N)C(=O)Nc1ccc(S(=O)(=O)Nc2onc(C)c2C)cc1
Streptococcus pneumoniae [1]
  inhibition zone (IZ): 20.2 mm
Bacillus subtilis [2]
  inhibition zone (IZ): 21.2 mm
[3]
  inhibition zone (IZ): 20.9 mm
Escherichia coli [4]
  inhibition zone (IZ): 18.2 mm
Proteus vulgaris [5]
  inhibition zone (IZ): 16.4 mm
Klebsiella pneumoniae [6]
  inhibition zone (IZ): 21.3 mm
Streptococcus pneumoniae [7]
  MIC: 3.9 µg/mL (≈ 8.95 µM)
Bacillus subtilis [8]
  MIC: 0.98 µg/mL (≈ 2.25 µM)
[9]
  MIC: 1.95 µg/mL (≈ 4.48 µM)
Escherichia coli [10]
  MIC: 7.81 µg/mL (≈ 17.9 µM)
Proteus vulgaris [11]
  MIC: 31.2 µg/mL (≈ 71.8 µM)
Klebsiella pneumoniae [12]
  MIC: 1.95 µg/mL (≈ 4.48 µM)
Aspergillus fumigatus [13]
  inhibition zone (IZ): 17.1 mm
[14]
  inhibition zone (IZ): 19.9 mm
Geotrichum candidum [15]
  inhibition zone (IZ): 18.3 mm
Aspergillus fumigatus [16]
  MIC: 15.6 µg/mL (≈ 35.9 µM)
[17]
  MIC: 3.9 µg/mL (≈ 8.95 µM)
Geotrichum candidum [18]
  MIC: 7.81 µg/mL (≈ 17.9 µM)
hTERT-BJ
  Activity: 2.7%
[19]
  inhibition: inactive
[20]
  inhibition: inactive
[25]
  Ratio: 2

## C=CCN/C(S[C@@H]1O[C@H](COC(C)=O)[C@H](OC(C)=O)[C@H](OC(C)=O)[C@H]1OC(C)=O)=C(/C#N)C(=O)Nc1ccc(S(=O)(=O)Nc2onc(C)c2C)cc1
Streptococcus pneumoniae [1]
  inhibition zone (IZ): 19.3 mm
Bacillus subtilis [2]
  inhibition zone (IZ): 20.8 mm
[3]
  inhibition zone (IZ): 17.1 mm
Escherichia coli [4]
  inhibition zone (IZ): 18.3 mm
Proteus vulgaris [5]
  inhibition zone (IZ): 15.2 mm
Klebsiella pneumoniae [6]
  inhibition zone (IZ): 21.2 mm
Streptococcus pneumoniae [7]
  MIC: 3.9 µg/mL (≈ 5.11 µM)
Bacillus subtilis [8]
  MIC: 0.98 µg/mL (≈ 1.28 µM)
[9]
  MIC: 15.6 µg/mL (≈ 20.5 µM)
Escherichia coli [10]
  MIC: 7.81 µg/mL (≈ 10.2 µM)
Proteus vulgaris [11]
  MIC: 62.5 µg/mL (≈ 81.8 µM)
Klebsiella pneumoniae [12]
  MIC: 0.98 µg/mL (≈ 1.28 µM)
Aspergillus fumigatus [13]
  inhibition zone (IZ): 18.3 mm
[14]
  inhibition zone (IZ): 17.2 mm
Geotrichum candidum [15]
  inhibition zone (IZ): 20.2 mm
Aspergillus fumigatus [16]
  MIC: 7.81 µg/mL (≈ 10.2 µM)
[17]
  MIC: 15.6 µg/mL (≈ 20.5 µM)
Geotrichum candidum [18]
  MIC: 3.9 µg/mL (≈ 5.11 µM)
hTERT-BJ
  Activity: 28.6%
[19]
  inhibition: inactive
[20]
  inhibition: inactive
Aspergillus fumigatus [21]
  Ratio: 1 to 3
Klebsiella pneumoniae [23]
  Ratio: 4
Escherichia coli [28]
  Ratio: 3
Geotrichum candidum [24]
  Ratio: 2
[29]
  Ratio: 1 to 3

## CCN/C(S[C@@H]1O[C@H](COC(C)=O)[C@@H](OC(C)=O)[C@H](OC(C)=O)[C@H]1OC(C)=O)=C(/C#N)C(=O)Nc1ccc(S(=O)(=O)Nc2onc(C)c2C)cc1
Streptococcus pneumoniae [1]
  inhibition zone (IZ): 25.3 mm
Bacillus subtilis [2]
  inhibition zone (IZ): 27.5 mm
[3]
  inhibition zone (IZ): 24.7 mm
Escherichia coli [4]
  inhibition zone (IZ): 21.3 mm
Proteus vulgaris [5]
  inhibition zone (IZ): 21.4 mm
Klebsiella pneumoniae [6]
  inhibition zone (IZ): 18.8 mm
Streptococcus pneumoniae [7]
  MIC: 3.9 µg/mL (≈ 5.19 µM)
Bacillus subtilis [8]
  MIC: 1.95 µg/mL (≈ 2.59 µM)
[9]
  MIC: 3.9 µg/mL (≈ 5.19 µM)
Escherichia coli [10]
  MIC: 7.81 µg/mL (≈ 10.4 µM)
Proteus vulgaris [11]
  MIC: 7.81 µg/mL (≈ 10.4 µM)
Klebsiella pneumoniae [12]
  MIC: 0.98 µg/mL (≈ 1.3 µM)
Aspergillus fumigatus [13]
  inhibition zone (IZ): 24.2 mm
[14]
  inhibition zone (IZ): 21.3 mm
Geotrichum candidum [15]
  inhibition zone (IZ): 22.1 mm
Aspergillus fumigatus [16]
  MIC: 3.9 µg/mL (≈ 5.19 µM)
[17]
  MIC: 15.6 µg/mL (≈ 20.8 µM)
Geotrichum candidum [18]
  MIC: 0.98 µg/mL (≈ 1.3 µM)
[19]
  inhibition: inactive
[20]
  inhibition: inactive
Aspergillus fumigatus [21]
  Ratio: 4 to 6
Geotrichum candidum [24]
  Ratio: 3 to 5
